# How the values were obtained:
# [1] = test system: CCRF-CEM; test: Antiviral activity against HIVIIIB strain of HIV-1 was determined in an CEM based assay; format: functional, cell-based; conditions: Homo sapiens
# [2] = molecular target: T1, Human immunodeficiency virus type 1 protease (Human immunodeficiency virus 1, UniProt Q72874); test: Binding affinity for HIV-1 protease was determined in vitro
# [3] = molecular target: T1, Human immunodeficiency virus type 1 protease; test: Binding affinity for HIV-1 protease was determined
# [4] = molecular target: T1, Human immunodeficiency virus type 1 protease; test: Ability to inhibit HIV-1 protease was determined using spectrofluorimetric assay
# [5] = molecular target: T1, Human immunodeficiency virus type 1 protease; test: Ability to inhibit HIV-1 protease was determined using spectrofluorimetric assay.
# [6] = molecular target: T1, Human immunodeficiency virus type 1 protease; test: Binding affinity for HIV-1 protease was determined.
# [7] = Toxicity in CEM cells infected with HIVIIIB strain of HIV-1; format: cell-based; conditions: human, CEM (CCRF-CEM) cells infected with HIV-1 strain IIIB; read-out: TD50 (the source's name)
# [8] = test system: CCRF-CEM; test: Antiviral activity against HIVIIIB strain of HIV-1 was determined in an CEM based assay.; format: functional, cell-based; conditions: Homo sapiens
# [9] = molecular target: T1, Human immunodeficiency virus type 1 protease; test: Binding affinity for HIV-1 protease was determined in vitro.
Structure (SMILES),Ki [3] [nM],IC50 [4] [nM],IC50 [5] [nM],Ki [6] [nM],also measured
CC(C)CN(C[C@@H](O)[C@H](Cc1ccccc1)NC(=O)OCc1ccccc1)S(=O)(=O)c1ccccc1,–,–,–,–,EC50 [1]: 113 nM; Ki [2]: 3.2 nM
O=C(N[C@@H](Cc1ccccc1)[C@H](O)CN(Cc1ccccc1)S(=O)(=O)c1ccccc1)OCc1ccccc1,125,190,–,–,–
CC(C)CCN(C[C@@H](O)[C@H](Cc1ccccc1)NC(=O)[C@H](CC(N)=O)NC(=O)OCc1ccccc1)S(C)(=O)=O,57,100,–,–,–
CC(C)CCN(C[C@@H](O)[C@H](Cc1ccccc1)NC(=O)OCc1ccccc1)S(=O)(=O)c1ccccc1Cl,–,–,380,227,–
CC(C)CCN(C[C@H](O)[C@H](Cc1ccccc1)NC(=O)OCc1ccccc1)S(=O)(=O)c1ccccc1,–,–,450,295,–
CC(C)CCN(C[C@@H](O)[C@H](Cc1ccccc1)NC(=O)OCc1ccccc1)S(C)(=O)=O,1870,3200,–,–,–
CC(C)CCN(C[C@@H](O)[C@H](Cc1ccccc1)NC(=O)[C@H](CC(N)=O)NC(=O)c1ccc2ccccc2n1)S(C)(=O)=O,–,–,–,–,CC50 [7]: 45000 nM; EC50 [1]: 53 nM; Ki [2]: 13 nM
CCCS(=O)(=O)N(CCC(C)C)C[C@@H](O)[C@H](Cc1ccccc1)NC(=O)OCc1ccccc1,–,–,210,128,–
CC(C)CCN(C[C@@H](O)[C@H](Cc1ccccc1)NC(=O)OCc1ccccc1)S(=O)(=O)Cc1ccccc1,–,–,10000,–,–
CC(C)CCN(C[C@@H](O)[C@H](Cc1ccccc1)NC(=O)OCc1ccccc1)S(=O)(=O)c1cccc(Cl)c1,–,–,92,61,–
CC(C)CCN(C[C@@H](O)[C@H](Cc1ccccc1)NC(=O)OCc1ccccc1)S(=O)(=O)c1ccccc1,–,–,–,–,CC50 [7]: 26000 nM; EC50 [8]: 55 nM; Ki [9]: 10 nM
CC(C)CCN(C[C@@H](O)[C@H](Cc1ccccc1)NC(=O)OCc1ccccc1)S(=O)(=O)c1ccc(Cl)cc1,–,–,10,4.1,–
O=C(N[C@@H](Cc1ccccc1)[C@H](O)CN(CC1CCCCC1)S(=O)(=O)c1ccccc1)OCc1ccccc1,6.7,14,–,–,–
CC(C)CCN(C[C@@H](O)[C@H](Cc1ccccc1)NC(=O)[C@H](CC(N)=O)NC(=O)c1ccc2ccccc2n1)S(=O)(=O)c1ccccc1,–,–,–,–,CC50 [7]: 203000 nM; EC50 [1]: 5 nM
CC(C)CCN(C[C@@H](O)[C@H](Cc1ccccc1)NC(=O)[C@H](CC(N)=O)NC(=O)OCc1ccccn1)S(=O)(=O)c1ccccc1,0.5,2.2,–,–,–
